Experimental findings from patent US20120028995A1, “NOVEL COMPOUNDS FOR MEDICAL USE AS PEPTIDASE EFFECTORS” (IMTM GMBH, priority 2010, published 2012) are described below.

Read-outs that look alike come from different tables or passages of the source. Bounds are passed on as bounds.

For one assay, the system named is T lymphocytes (T cells). In words: Suppression of DNA synthesis of PHA-stimulated T lymphocytes. Particulars: T-cell, tritium thymidine incorporation, read-out: Supp. DNA Synt. T-cell IC50. The class given is cell-based. In outline: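 Healthy-donor PBMC and nylon-wool-purified T cells in serum-free AIMV medium were stimulated 48 h with 1 µg/ml PHA, with compound (0.1–250 µM) present throughout. IC50 was estimated graphically from proliferation relative to PHA-activated T cells without compound.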
For orientation: Uptake of a labelled nucleoside into DNA is a usual measure of proliferation.

The subject of assay [1] is purified, recombinant DP8 and DP9. In words: Inhibition of enzymatic activity of DP8/9. Particulars: highest test item concentration 25 μM; for IC50: read-out: meas. IC50 (DP8/9). The class given is biochemical. In a few lines: (§1)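 Recombinant human DPIV (Sf9-derived, approx. 1 nM) and recombinant DP8/DP9 in 0.05M Tris/HCl pH 7.5 with 0.05% Triton, 0.05% BSA, 2 mM MgCl2. Substrates were Gly-Pro-AMC at 50 μM (ex 380/em 460 nm, read at 0–120 min) or (Ala-Pro)2-R110 at 1 μM (ex 488/em 530 nm). IC50 from ≥16 log2 dilutions, top 25 μM.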

Assay [2] addresses T1, aminopeptidase N (APN), purified recombinant human enzyme (Homo sapiens, UniProt P15144).
T1 construct: made in house; host or cells: ECV cells (transfected)
In words: Inhibition of enzymatic activity of aminopeptidase N (fluorogenic substrate hydrolysis). It is filed as biochemical. Particulars: highest test item concentration 25 μM; for IC50: read-out: meas. IC50 (APN). In a few lines:
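Recombinant human APN from transfected ECV cells was used at approx. 1 nM final, in 0.05M TRIS/HCl pH 7.5 with 0.05% Triton, 0.05% BSA and 2 mM MgCl2. Fluorescence release was read from H-Ala-AMC (50 μM) or (Ala-)2-R110 (1 μM). IC50 values came from at least 16 log2 dilutions starting at 25 μM top concentration.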

The target of assay [3] is T2, cytosolic aminopeptidase (cAAP) purified from Jurkat cells (Homo sapiens, UniProt P55786).
T2 construct: The cytosolic aminopeptidase (cAAP) was purified from Jurkat cells; endogenous in cells; host or cells: Jurkat cells (enzyme purified from them)
The assay is described as follows: Inhibition of enzymatic activity of cytosolic aminopeptidase (cAAP). Particulars: highest test item concentration 25 μM; for IC50: read-out: meas. IC50 (cAAP). It is filed as biochemical.

The subject of a further assay is NHEK cells. In words: Inhibition of DNA synthesis and proliferation of normal human epidermal keratinocytes (NHEK). The class given is cell-based. The settings on record: Homo sapiens, EGF-stimulated NHEK, BrdU incorporation, read-out: Supp. DNA Synt. NHEK IC50. In outline: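 Primary human keratinocytes were grown 48 h in serum-free medium with EGF and pituitary extract, with compounds at 0.1–100 μM. DNA synthesis was measured by BrdU incorporation ELISA relative to untreated controls (100%), and IC50 was derived graphically.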

In the next assay the test system is SZ95 cells. The assay is described as follows: Inhibition of DNA synthesis and proliferation of immortalized human sebocytes SZ95. It is filed as cell-based. Particulars: Homo sapiens, EGF-stimulated SZ95 sebocytes, tritium thymidine incorporation; read-out: Supp. DNA Synt. SZ95 IC50. In a few lines:
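EGF-stimulated SZ95 sebocytes in serum-free Sebomed Complete, treated with test items at 0.1–100 μM. DNA synthesis read by 3H-thymidine incorporation (beta counting), expressed relative to untreated cells (100%). IC50 for proliferation suppression derived graphically.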

The target in assay [4] is T3, purified, recombinant human DPIV (Homo sapiens, UniProt P27487).
T3 construct: made in house; host or cells: Sf9 insect cells
The assay is described as follows: Inhibition of enzymatic activity of DPIV (fluorogenic substrate hydrolysis). The settings on record: highest test item concentration 25 μM; for IC50: read-out: meas. IC50 (DPIV). It is filed as biochemical. In a few lines: as §1

T2 sequence (P55786 whole entry): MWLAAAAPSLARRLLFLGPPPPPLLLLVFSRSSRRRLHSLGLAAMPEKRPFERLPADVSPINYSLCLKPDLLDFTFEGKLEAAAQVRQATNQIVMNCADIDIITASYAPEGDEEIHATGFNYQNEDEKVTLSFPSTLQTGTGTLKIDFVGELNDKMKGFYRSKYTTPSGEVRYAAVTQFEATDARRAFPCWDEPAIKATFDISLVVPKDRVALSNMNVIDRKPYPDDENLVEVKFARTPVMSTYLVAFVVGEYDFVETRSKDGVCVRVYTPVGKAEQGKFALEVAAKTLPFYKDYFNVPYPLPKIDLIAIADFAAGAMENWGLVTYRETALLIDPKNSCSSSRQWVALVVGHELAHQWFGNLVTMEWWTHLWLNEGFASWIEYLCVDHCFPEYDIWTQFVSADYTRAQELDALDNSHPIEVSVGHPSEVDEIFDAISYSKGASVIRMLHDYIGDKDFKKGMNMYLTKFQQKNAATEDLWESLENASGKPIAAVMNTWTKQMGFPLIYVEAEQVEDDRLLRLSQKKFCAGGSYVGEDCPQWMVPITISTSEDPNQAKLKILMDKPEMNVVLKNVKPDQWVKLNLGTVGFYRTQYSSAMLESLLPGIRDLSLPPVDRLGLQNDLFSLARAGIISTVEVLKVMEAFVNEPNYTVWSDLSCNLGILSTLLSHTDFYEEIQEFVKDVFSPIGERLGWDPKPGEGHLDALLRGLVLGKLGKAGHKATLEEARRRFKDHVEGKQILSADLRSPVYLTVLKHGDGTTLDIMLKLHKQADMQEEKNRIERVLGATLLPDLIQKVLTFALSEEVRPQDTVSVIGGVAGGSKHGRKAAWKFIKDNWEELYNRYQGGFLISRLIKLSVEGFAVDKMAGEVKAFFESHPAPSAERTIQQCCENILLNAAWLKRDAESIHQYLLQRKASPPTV
T1 sequence (P15144 whole entry): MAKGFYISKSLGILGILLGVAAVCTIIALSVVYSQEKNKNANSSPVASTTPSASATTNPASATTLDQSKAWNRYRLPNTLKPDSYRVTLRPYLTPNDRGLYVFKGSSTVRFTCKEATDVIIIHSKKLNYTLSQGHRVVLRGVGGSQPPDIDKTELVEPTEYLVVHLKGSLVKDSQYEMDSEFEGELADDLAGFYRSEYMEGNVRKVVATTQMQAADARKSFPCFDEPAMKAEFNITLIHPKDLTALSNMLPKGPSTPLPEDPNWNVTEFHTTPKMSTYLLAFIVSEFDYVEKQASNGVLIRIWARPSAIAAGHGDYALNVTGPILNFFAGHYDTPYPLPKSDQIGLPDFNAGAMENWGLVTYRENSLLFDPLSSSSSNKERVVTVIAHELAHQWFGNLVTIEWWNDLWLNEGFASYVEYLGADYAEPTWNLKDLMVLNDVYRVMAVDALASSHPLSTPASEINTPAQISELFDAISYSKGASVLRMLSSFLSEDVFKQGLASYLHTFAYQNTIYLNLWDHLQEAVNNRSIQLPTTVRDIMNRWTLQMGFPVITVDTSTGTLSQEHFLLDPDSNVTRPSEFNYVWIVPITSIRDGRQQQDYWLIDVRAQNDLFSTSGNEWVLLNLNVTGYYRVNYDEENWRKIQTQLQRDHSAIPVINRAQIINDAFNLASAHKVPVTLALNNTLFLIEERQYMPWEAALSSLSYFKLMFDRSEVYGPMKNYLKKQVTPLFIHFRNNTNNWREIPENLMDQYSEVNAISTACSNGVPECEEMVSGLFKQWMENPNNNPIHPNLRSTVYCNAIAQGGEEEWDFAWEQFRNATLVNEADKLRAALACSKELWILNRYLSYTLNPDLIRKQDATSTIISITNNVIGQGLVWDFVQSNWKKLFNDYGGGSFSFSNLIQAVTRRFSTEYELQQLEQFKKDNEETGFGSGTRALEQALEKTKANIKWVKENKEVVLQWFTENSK
T3 sequence (P27487 whole entry): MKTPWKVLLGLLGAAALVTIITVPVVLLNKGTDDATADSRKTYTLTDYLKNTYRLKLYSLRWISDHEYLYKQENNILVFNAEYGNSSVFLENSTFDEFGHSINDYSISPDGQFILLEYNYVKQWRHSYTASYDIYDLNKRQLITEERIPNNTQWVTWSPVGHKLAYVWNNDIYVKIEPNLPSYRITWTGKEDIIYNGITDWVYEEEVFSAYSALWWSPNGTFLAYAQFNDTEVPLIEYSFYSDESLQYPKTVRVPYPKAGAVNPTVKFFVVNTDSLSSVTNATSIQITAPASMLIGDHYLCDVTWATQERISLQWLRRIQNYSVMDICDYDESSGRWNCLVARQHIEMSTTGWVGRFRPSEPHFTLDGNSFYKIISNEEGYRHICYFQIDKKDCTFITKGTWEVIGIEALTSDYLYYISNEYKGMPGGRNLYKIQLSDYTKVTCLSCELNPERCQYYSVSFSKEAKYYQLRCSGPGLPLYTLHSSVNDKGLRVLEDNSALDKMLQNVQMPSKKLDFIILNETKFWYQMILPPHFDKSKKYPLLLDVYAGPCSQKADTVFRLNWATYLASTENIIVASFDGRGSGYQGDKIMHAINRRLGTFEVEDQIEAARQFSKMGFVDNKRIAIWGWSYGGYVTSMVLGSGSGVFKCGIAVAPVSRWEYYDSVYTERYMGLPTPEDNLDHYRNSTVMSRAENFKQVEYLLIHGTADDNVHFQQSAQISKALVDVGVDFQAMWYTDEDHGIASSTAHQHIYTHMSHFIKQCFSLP

On to `CC(C)(CNC(=O)CC(Cc1cc(F)ccc1F)NC(=O)OCc1ccccc1)CNC(=O)C(O)C(N)COCc1ccccc1` (centres unmarked) [Compound C19.026], for which the IC50 in the assay on T lymphocytes (T cells) (Homo sapiens, 48 h) amounted to 12.2 µM; in assay [1] it was 7.3 µM; in assay [2], 1 µM; in assay [3], 0.5 µM; in the assay on NHEK cells (NHEK, 48 h), 8.9 µM; in the assay with SZ95 cells, 22.7 µM. The “meas. IC50 (DPIV)” value in assay [4] is “No in- hibition”.
Consider `CC(C)(CNC(=O)CC(Cc1cc(F)ccc1F)NC(=O)OCc1ccccc1)CNC(=O)C(O)C(COCc1ccccc1)NC(=O)OC(C)(C)C` (centres unmarked) [Compound C19.027], for which the IC50 is 5.2 µM in the assay with T lymphocytes (T cells) (Homo sapiens, 48 h); 42.1 µM with NHEK cells (NHEK, 48 h); 8.53 µM with SZ95 cells. Moreover, the “meas. IC50 (DP8/9)” value in assay [1] was “no in- hibition”. Further, the “meas. IC50 (APN)” value in assay [2] was “no in- hibition”. For the same compound, the “meas. IC50 (cAAP)” value in assay [3] is “no in- hibition”. In addition, the “meas. IC50 (DPIV)” value in assay [4] is on record as “No in- hibition”.
`CC(C)(CNC(=O)CC(N)Cc1cc(F)ccc1F)CNC(=O)C(O)C(COCc1ccccc1)NC(=O)OC(C)(C)C` (centres unmarked) [Compound C19.028]: the IC50 came to 9 µM with T lymphocytes (T cells) (Homo sapiens, 48 h); 1.4 µM in assay [1]; 31.4 µM in the assay on NHEK cells (NHEK, 48 h); 49.4 µM in the assay on SZ95 cells; 0.17 µM in assay [4]. For the same compound, the “meas. IC50 (APN)” value in assay [2] is listed as “no in- hibition”. The “meas. IC50 (cAAP)” value in assay [3] was “no in- hibition”.
For `CC(C)NC(CC(=O)NCC(C)(C)CNC(=O)C(O)C(N)COCc1ccccc1)Cc1cc(F)ccc1F` (centres unmarked) [Compound C19.029], the IC50 stood at 29.4 µM in the assay with T lymphocytes (T cells) (Homo sapiens, 48 h); 24.3 µM in assay [1]; 0.59 µM in assay [2]; 0.33 µM in assay [3]; 34.8 µM with NHEK cells (NHEK, 48 h); 92.7 µM with SZ95 cells. In assay [4], the IC50 worked out at 14.5 µM.
`CC(C)(CNC(=O)CC(Cc1cc(F)ccc1F)Nc1ccc([N+](=O)[O-])c2nonc12)CNC(=O)C(O)C(COCc1ccccc1)Nc1ccc([N+](=O)[O-])c2nonc12` (centres unmarked) [Compound C19.030]: the IC50 in the assay with T lymphocytes (T cells) (PHA-stimulated human T cells, 48 hours) is 18.2 µM; in the assay with NHEK cells (48 hours) it was 7.55 µM; in the assay on SZ95 cells it was 29.7 µM. For the same compound, the “meas. IC50 (DP8/9)” value in assay [1] is on record as “no in- hibition”. Moreover, the “meas. IC50 (APN)” value in assay [2] was “no in- hibition”. Moreover, the “meas. IC50 (cAAP)” value in assay [3] is “no in- hibition”. The “meas. IC50 (DPIV)” value in assay [4] is given as “No in- hibition”.
On to `NC(CNC(=O)c1cccc(NC(=O)C(O)C(N)COCc2ccccc2)c1)Cc1cc(F)ccc1F` (centres unmarked) [Compound C19.031], for which the IC50 is 58.2 µM in the assay on T lymphocytes (T cells) (Homo sapiens, 48 h); 13.3 µM in assay [1]; 0.012 µM in assay [2]; 0.18 µM in assay [3]; 20.1 µM in the assay with NHEK cells (NHEK, 48 h); no less than 119 µM with SZ95 cells. In addition, in assay [4], the IC50 worked out at 2.3 µM.
Turning to `NC(CCCCNC(=O)C(O)C(N)Cc1ccccc1)C(=O)N1CCSC1` (centres unmarked) [Compound C21.001], the IC50 was 90.1 µM in the assay on T lymphocytes (T cells) (Homo sapiens, 48 h); 0.02 µM in assay [1]; 0.178 µM in assay [2]; 0.066 µM in assay [3]; 77 µM in the assay with NHEK cells (NHEK, 48 h); 65.5 µM in the assay with SZ95 cells. Moreover, the IC50 in assay [4] worked out at 0.11 µM.
As for `CC(C)(C)OC(=O)NC(CCCCNC(=O)C(O)C(Cc1ccccc1)NC(=O)OC(C)(C)C)C(=O)N1CCSC1` (centres unmarked) [Compound C21.002], the IC50 with T lymphocytes (T cells) (Homo sapiens, 48 h) was 55.1 µM; in the assay on NHEK cells (NHEK, 48 h), 49.3 µM; in the assay on SZ95 cells it was 61.6 µM. Further, the “meas. IC50 (DP8/9)” value in assay [1] is given as “no in- hibition”. The “meas. IC50 (APN)” value in assay [2] is “no in- hibition”. Also, the “meas. IC50 (cAAP)” value in assay [3] is “no in- hibition”. Moreover, in assay [4], the “meas. IC50 (DPIV)” value is given as “no in- hibition”.
On to `NC(CCCCNC(=O)c1cccc(NC(=O)C(O)C(N)Cc2ccccc2)c1)C(=O)N1CCSC1` (centres unmarked) [Compound C21.003], for which the IC50 is 157 µM in the assay with T lymphocytes (T cells) (Homo sapiens, 48 h); 0.054 µM in assay [1]; 0.62 µM in assay [2]; 0.13 µM in assay [3]; 62 µM in the assay on NHEK cells (NHEK, 48 h); no less than 200 µM in the assay on SZ95 cells. Further, the IC50 in assay [4] is 0.07 µM.
Take `CC(C)(C)OC(=O)NC(CCCCNC(=O)c1cccc(NC(=O)C(O)C(Cc2ccccc2)NC(=O)OC(C)(C)C)c1)C(=O)N1CCSC1` (centres unmarked) [Compound C21.004]: the IC50 is 12 µM in the assay with T lymphocytes (T cells) (Homo sapiens, 48 h); 13.9 µM with NHEK cells (NHEK, 48 h); 19.4 µM with SZ95 cells. For the same compound, the “meas. IC50 (DP8/9)” value in assay [1] is “no in- hibition”. For the same compound, in assay [2], the “meas. IC50 (APN)” value is listed as “no in- hibition”. Besides, the “meas. IC50 (cAAP)” value in assay [3] is listed as “no in- hibition”. The “meas. IC50 (DPIV)” value in assay [4] is “no in- hibition”.
As to `CC(=O)SC(C(=O)NCCCCC(NC(=O)OC(C)(C)C)C(=O)N1CCSC1)C(Cc1ccccc1)NC(=O)OC(C)(C)C` (centres unmarked) [Compound C22.001], the IC50 is 136 µM in the assay with T lymphocytes (T cells) (Homo sapiens, 48 h); 0.57 µM in assay [3]; no less than 200 µM in the assay on NHEK cells (NHEK, 48 h); 57.1 µM in the assay with SZ95 cells. Also, in assay [1], the “meas. IC50 (DP8/9)” value was “no in- hibition”. Further, in assay [2], the “meas. IC50 (APN)” value is recorded as “no in- hibition”. Besides, the “meas. IC50 (DPIV)” value in assay [4] is recorded as “no in- hibition”.
`CC(C)(C)OC(=O)NC(CCCCNC(=O)C(S)C(Cc1ccccc1)NC(=O)OC(C)(C)C)C(=O)N1CCSC1` (centres unmarked) [Compound C22.002]: the IC50 with T lymphocytes (T cells) (Homo sapiens, 48 h) is 54.1 µM; in assay [3] it was 1 µM; in the assay with NHEK cells (NHEK, 48 h), 85.2 µM; with SZ95 cells, no less than 200 µM. Besides, the “meas. IC50 (DP8/9)” value in assay [1] is reported as “no in- hibition”. The “meas. IC50 (APN)” value in assay [2] is “no in- hibition”. Moreover, in assay [4], the “meas. IC50 (DPIV)” value is given as “no in- hibition”.
`NC(CCCCNC(=O)C(S)C(N)Cc1ccccc1)C(=O)N1CCSC1` (centres unmarked) [Compound C22.003]: the IC50 with T lymphocytes (T cells) (Homo sapiens, 48 h) was determined as 30.2 µM; in assay [1] it was 0.34 µM; in assay [2] it was 3.79 µM; in assay [3], 3.5 µM; in the assay with NHEK cells (NHEK, 48 h), 38.9 µM; with SZ95 cells, 75.2 µM. For the same compound, the IC50 in assay [4] was 0.032 µM.
Take `CC(C)[C@@H]1CC[C@@H](C)CC1OC(=O)CC(Cc1cc(F)ccc1F)NC(=O)OC(C)(C)C` (some centres unmarked) [Compound C-122]: the IC50 in the assay with T lymphocytes (T cells) (Homo sapiens, 48 h) is 5.83 µM; with NHEK cells (NHEK, 48 h), 69.4 µM; in the assay with SZ95 cells it was 65.2 µM. Also, in assay [1], the “meas. IC50 (DP8/9)” value is reported as “no in- hibition”. The “meas. IC50 (APN)” value in assay [2] is on record as “no in- hibition”. Moreover, the “meas. IC50 (cAAP)” value in assay [3] is “no in- hibition”. Also, the “meas. IC50 (DPIV)” value in assay [4] is “no in- hibition”.
